Experiments:
[1] = test system: WM-266-4 cells; assay: Cell Proliferation Inhibitory Test; assay type: cell-based; conditions: Homo sapiens, 72 h, cultured three days with test compound, MTT, read-out: 50% cell proliferation inhibitory activity (GI50 value)
Experimental: WM-266-4 cells (ATCC, USA) were seeded in a 96-well plate and cultured overnight. Then, serial dilutions of the sample containing the test compound were prepared, added to each well and cultured another three days. Thereafter, the cell amount in each well was measured by MTT (MOSMANN, T., Rapid colorimetric assay for cellular growth and survival: application to proliferation and cytotoxicity assays. J. Immunol. Methods, 65, 55-63 (1983)). The 50% cell proliferation inhibitory activity (GI50 value) was calculated from the following formula (3). 100×[(T−T0)/(C−T0)]=50 (3)
Here, T represents values from the test compound added wells, C represents the value from the well to which the test compound was not added for three days, and To represents an initial measured value at the time of addition of the test compound.

[2] = target: T1, human mTOR (Homo sapiens, UniProt P42345); assay: mTOR Kinase Activity Inhibition Test; assay type: biochemical; conditions: His-tagged mTOR (1362C), biotinylated peptide substrate, ATP, 3 hours at room temperature, fluorescence resonance energy transfer 665 nm/620 nm; read-out: IC50 value of mTOR enzyme inhibitory activity
T1 construct: the portion corresponding to 1362-2549aa at the C terminus of human mTOR; made in house
T1 sequence (P42345 1362-2549): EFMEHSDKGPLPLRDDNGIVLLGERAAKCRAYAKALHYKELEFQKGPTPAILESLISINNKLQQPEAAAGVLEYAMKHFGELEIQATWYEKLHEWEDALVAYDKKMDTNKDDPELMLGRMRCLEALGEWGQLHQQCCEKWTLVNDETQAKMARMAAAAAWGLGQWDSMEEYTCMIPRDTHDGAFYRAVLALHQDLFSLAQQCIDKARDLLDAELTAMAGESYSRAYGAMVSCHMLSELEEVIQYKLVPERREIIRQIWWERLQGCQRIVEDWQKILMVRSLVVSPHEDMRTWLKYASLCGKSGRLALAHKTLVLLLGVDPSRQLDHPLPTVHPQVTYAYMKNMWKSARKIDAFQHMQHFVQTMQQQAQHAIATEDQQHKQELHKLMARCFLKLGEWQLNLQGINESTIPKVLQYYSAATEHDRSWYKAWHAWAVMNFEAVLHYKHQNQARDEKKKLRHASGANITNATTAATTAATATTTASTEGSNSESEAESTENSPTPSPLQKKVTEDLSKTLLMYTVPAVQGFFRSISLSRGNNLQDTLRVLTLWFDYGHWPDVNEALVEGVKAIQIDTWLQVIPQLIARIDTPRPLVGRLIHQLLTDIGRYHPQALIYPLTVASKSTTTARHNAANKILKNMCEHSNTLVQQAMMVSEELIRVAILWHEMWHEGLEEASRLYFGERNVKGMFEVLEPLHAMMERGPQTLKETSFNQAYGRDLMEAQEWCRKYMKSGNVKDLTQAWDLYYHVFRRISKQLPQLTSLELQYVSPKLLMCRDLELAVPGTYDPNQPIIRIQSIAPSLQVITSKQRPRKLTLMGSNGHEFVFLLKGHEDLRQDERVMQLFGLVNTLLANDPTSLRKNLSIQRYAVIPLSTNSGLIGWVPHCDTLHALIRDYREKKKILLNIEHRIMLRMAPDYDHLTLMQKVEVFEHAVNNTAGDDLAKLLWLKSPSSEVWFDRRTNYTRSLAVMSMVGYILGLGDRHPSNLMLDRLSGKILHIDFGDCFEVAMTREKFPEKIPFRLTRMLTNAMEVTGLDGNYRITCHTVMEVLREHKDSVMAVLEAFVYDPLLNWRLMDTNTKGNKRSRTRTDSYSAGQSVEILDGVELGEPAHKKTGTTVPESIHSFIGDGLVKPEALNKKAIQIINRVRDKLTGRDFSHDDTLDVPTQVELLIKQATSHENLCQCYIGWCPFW
Experimental: The kinase activity of mTOR was measured in the presence or absence of a test compound. A substrate peptide is phosphorylated by mTOR kinase activity. A complex of streptavidin-XL665 and anti-phosphorylated S6K (Thr389) antibody/anti-mouse IgG-cryptate binds to this phosphorylated peptide. At this moment, fluorescence resonance energy transfer takes place from antibody/anti-mouse IgG-cryptate exposed to light excitation to XL665, which results in emission of fluorescence at 665 nm. The mTOR kinase activity is detected using this principle.
(1) Sample Preparation and Enzymatic Reaction
An HEK293 cell line that constitutively expresses a His tag fused human mTOR has been established. His tag was introduced into the N terminus of the portion corresponding to 1362-2549aa at the C terminus of human mTOR. Cell lysate was prepared from this HEK293 cell line constitutively expressing His-tagged mTOR (1362C), and His-tagged mTOR (1362C) was purified using the His tag affinity according to a conventional method.
Next, an mTOR enzyme solution was prepared, which contains the aforementioned His-tagged mTOR (1362C) enzyme, 8 μg/mL of biotinylated peptide (Biotin-Ahx-[…]-amide (Sigma)), as well as 50 mM HEPES (pH 7.5), 20 mM MnCl2, 1 mg/ml BSA, an appropriate amount of protease inhibitor cocktail (Complete EDTA free, Roche), 100 ng/ml Calyculin A, 4 μg/ml Cantharidin and 10 mM DTT as other components.
The test compound was dissolved in DMSO, and serial dilutions were prepared with 20 μM ATP solution (50 mM HEPES (pH 7.5), 20 μM ATP) to achieve concentrations necessary for the assay. 5 μL of this compound solution was applied to each well of a 384 well small volume white Greiner plate.
5 μL of mTOR enzyme solution was added to the aforementioned well containing the test compound. After mixing, the mixture was incubated at room temperature for 3 hours to carry out the enzymatic reaction.
The same operation was performed with a solution of DMSO in 20 μM ATP solution as a positive control and with a solution of DMSO in 50 mM HEPES (pH 7.5) as a negative control.
(2) Detection of Enzymatic Reaction
After the enzymatic reaction, 5 μl each of an europium solution (a solution of anti-mouse IgG-cryptate (SCETI Medical Labo K.K.) and anti-phosphorylated S6K (Thr389) antibody (Cell Signaling Technology Inc.) in 50 mM HEPES (pH 7.5), 100 mM EDTA and 1.5 mg/ml BSA) and an XL665 solution (a solution of streptavidin-XL665 (SCETI Medical Labo K.K.) in 50 mM HEPES (pH 7.5), 100 mM EDTA, 0.8 M KF and 1.5 mg/ml BSA) were added in this order and then mixed. The mixture was incubated at 4° C. overnight. On the following day, the mixture was returned to room temperature and irradiated with excitation light at 337 nm. Fluorescence at 620 nm and fluorescence at 665 nm were measured with RUBYstar (BMG).
The mTOR inhibitory activity (%) was calculated using the ratio calculated from the measured values as an index of enzyme activity. Here, the ratio was calculated from the following formula (I). Ratio=10000×665 nm fluorescence value/620 nm fluorescence value (1)
The mTOR enzyme inhibitory activity (%) was calculated from the following formula (2). mTOR enzyme inhibitory activity (%)=100×[(P−S)/(P−N)] (2)
P: Ratio in well of positive control
N: Ratio in well of negative control
S: Ratio in well containing test compound
Further, an optimal curve was calculated based upon each concentration of the test compound prepared in serial dilutions and the mTOR enzyme inhibitory activity (%) at that concentration. The concentration at which 50% inhibition occurred was calculated as the IC50 value of mTOR enzyme inhibitory activity.

Structure (SMILES) | GI50 [1] | IC50 [2]
Cc1c(-c2cnc3[nH]c(=O)n(C[C@H]4CC[C@@H](O)CO4)c3c2)cnc2[nH]ccc12 (racemic) [Example 141, 2,6-Anhydro-1,3,4-trideoxy-1-[6-(4-methyl-1H-pyrrolo[2,3-b]pyridin-5-yl)-2-oxo-2,3-dihydro-1H-imidazo[4,5-b]pyridin-1-yl]-DL-threo-hexitol] | < 3000 nM | < 50 nM
CO[C@@H]1CC[C@H](Cn2c(=O)[nH]c3ncc(-c4cnc5[nH]ccc5c4C)cc32)OC1 (racemic) [Example 142, 2,6-Anhydro-1,3,4-trideoxy-5-O-methyl-1-[6-(4-methyl-1H-pyrrolo[2,3-b]pyridin-5-yl)-2-oxo-2,3-dihydro-1H-imidazo[4,5-b]pyridin-1-yl]-DL-threo-hexitol] | < 3000 nM | < 50 nM
O=c1[nH]c2ncc(-c3ccc4[nH]ccc4c3)cc2n1CC1CC1 [Example 1, 1-(Cyclopropylmethyl)-6-(1H-indol-5-yl)-1,3-dihydro-2H-imidazo[4,5-b]pyridin-2-one] | < 3000 nM | < 50 nM
O=c1[nH]c2ncc(-c3ccc4[nH]ccc4c3)cc2n1C1CCOCC1 [Example 2, 6-(1H-Indol-5-yl)-1-(tetrahydro-2H-pyran-4-yl)-1,3-dihydro-2H-imidazo[4,5-b]pyridin-2-one] | < 3000 nM | 100 to 5000 nM
O=c1[nH]c2ncc(-c3ccc4[nH]ccc4c3)cc2n1CCC1CCOCC1 [Example 3, 6-(1H-Indol-5-yl)-1-[2-(tetrahydro-2H-pyran-4-yl)ethyl]-1,3-dihydro-2H-imidazo[4,5-b]pyridin-2-one] | < 3000 nM | < 50 nM
O=c1[nH]c2ncc(-c3ccc4[nH]ccc4c3)cc2n1CC1CCOCC1 [Example 4, 6-(1H-Indol-5-yl)-1-(tetrahydro-2H-pyran-4-ylmethyl)-1,3-dihydro-2H-imidazo[4,5-b]pyridin-2-one] | < 3000 nM | < 50 nM
O=c1[nH]c2ncc(-c3cnc4ccccc4c3)cc2n1CC1CCOCC1 [Example 5, 6-Quinolin-3-yl-1-(tetrahydro-2H-pyran-4-ylmethyl)-1,3-dihydro-2H-imidazo[4,5-b]pyridin-2-one] | < 3000 nM | < 50 nM
O=c1[nH]c2ncc(-c3ccc4[nH]ccc4c3)cc2n1CC1CCCCC1 [Example 6, 1-(Cyclohexylmethyl)-6-(1H-indol-5-yl)-1,3-dihydro-2H-imidazo[4,5-b]pyridin-2-one] | < 3000 nM | < 50 nM
Cc1nc2[nH]c(=O)n(CC3CCOCC3)c2cc1-c1ccc2[nH]ccc2c1 [Example 7, 6-(1H-Indol-5-yl)-5-methyl-1-(tetrahydro-2H-pyran-4-ylmethyl)-1,3-dihydro-2H-imidazo[4,5-b]pyridin-2-one] | < 3000 nM | < 50 nM
Cc1c(-c2ccc3[nH]ccc3c2)cnc2[nH]c(=O)n(CC3CCOCC3)c12 [Example 8, 6-(1H-Indol-5-yl)-7-methyl-1-(tetrahydro-2H-pyran-4-ylmethyl)-1,3-dihydro-2H-imidazo[4,5-b]pyridin-2-one] | 3000 to 25000 nM | 100 to 5000 nM
CS(=O)(=O)N1CCC(Cn2c(=O)[nH]c3ncc(-c4ccc5[nH]ccc5c4)cc32)CC1 [Example 9, 6-(1H-Indol-5-yl)-1-{[1-(methanesulfonyl)piperidin-4-yl]methyl}-1,3-dihydro-2H-imidazo[4,5-b]pyridin-2-one] | < 3000 nM | < 50 nM
O=c1[nH]c2ncc(-c3ccc4ncccc4c3)cc2n1CC1CCOCC1 [Example 10, 6-Quinolin-6-yl-1-(tetrahydro-2H-pyran-4-ylmethyl)-1,3-dihydro-2H-imidazo[4,5-b]pyridin-2-one] | 3000 to 25000 nM | < 50 nM
O=c1[nH]c2ncc(-c3ccc4[nH]ncc4c3)cc2n1CC1CCOCC1 [Example 14, 6-(1H-Indazol-5-yl)-1-(tetrahydro-2H-pyran-4-ylmethyl)-1,3-dihydro-2H-imidazo[4,5-b]pyridin-2-one] | 3000 to 25000 nM | 100 to 5000 nM
